Reference: paper PMC3894558, “Chemical signatures and new drug targets for gametocytocidal drug development” (Scientific Reports, 2014)
Where two headings read alike, the source gives them in different places.

System: P. falciparum 3D7 gametocytes
Assay: alamarBlue gametocyte viability assay, strain 3D7
Format: cell-based, Plasmodium falciparum
Settings: for Max Resp: DMSO set at 0%, 100 nM epoxomicin set at -100%; for Curve Class / IC50: stages III-V 3D7 gametocytes; for IC50: 11 concentrations, 1:3 dilution; call rule not given here

SMILES | Max Resp (Malaria Box) [%] | Curve Class (Malaria Box) | IC50 (Plasmodium falciparum, 3D7, Malaria Box, read-out: IC50) [µM] | IC50 (Malaria Box, read-out: IC50) [µM] | IC50 (Malaria Box)
CN(C)c1ccc(C(O)(c2ccc(N(C)C)cc2)c2ccc(N(C)C)cc2)cc1 [MMV665941] | -118 | -1.1 | 5.9 |  | 
COc1ccc(-c2nonc2NC(=O)c2cccc(Cl)c2)cc1OC [MMV020660] | -67 | -2.2 |  | 23.5 | 
CC(C)OCc1cc(CN2CCN(c3cccc(Cl)c3)CC2)c(O)c2ncccc12 [MMV000788] | -97 | -1.1 |  | 8.33 | 
COc1cccc(-c2nn(C)c3sc(C(=O)NCCN4CCN(c5ccccc5F)CC4)cc23)c1 [MMV019064] | -42 | -2.2 |  |  | Inactive
CC(C)(C)c1ccc(O)c(CNC2CCCCC2)c1 [MMV665785] | -50 | -1.2 |  | 0.148 | 
Oc1ccc(Cl)cc1CNc1nc2ccccc2[nH]1 [MMV665850] | -50 | -2.2 |  |  | Inactive
CCN(CC)CCn1c(=N)n(CC(O)c2ccc(Cl)c(Cl)c2)c2ccccc21.Cl (stereo not drawn) [MMV000248] | -99 | -1.1 |  | 1.48 | 
CCOC(=O)c1cnc2c(C)cc(C)cc2c1Nc1ccc(OC)c(OC)c1 [MMV008294] | -8 | 4 |  |  | Inactive
Cc1ccc(F)cc1NC(=O)c1cc(Cl)ccc1Nc1ccccc1 [MMV007275] | -41 | -2.2 |  |  | Inactive
O=C(NC1CCN(Cc2ccccc2)CC1)c1cc2nc(-c3ccc(Cl)s3)cc(C(F)(F)F)n2n1 [MMV396635] | -24 | 4 |  |  | Inactive
CCC(c1ccccc1)c1nn2c(-c3cccs3)nnc2s1 (stereo not drawn) [MMV665876] | -47 | -2.2 |  |  | Inactive
O=C(Nc1ccc(-c2nc3ccccc3[nH]2)cc1)c1ccc(Cl)c(Cl)c1 [MMV665840] | -16 | 4 |  |  | Inactive
Cc1cc(Nc2ccc(Cl)cc2)n2nc(C(F)(F)F)nc2n1 [MMV011256] | -9 | 4 |  |  | Inactive
CN(C)CCCNc1c2ccccc2nc2ccccc12 [MMV000448] | -105 | -1.1 |  | 1.87 | 
OC(CNC1CCCC1)Cn1c2ccccc2c2ccccc21 (stereo not drawn) [MMV000848] | -93 | -1.1 |  | 2.09 | 
COc1cccc(C2(C)Nc3ccccc3-c3nc4ccccc4n32)c1 (stereo not drawn) [MMV396719] | -71 | -2.2 |  | 23.5 | 
CCCCCCC(O)(c1ccc(F)cc1)C(CN1CCOCC1)c1ccccc1.Cl (stereo not drawn) [MMV000621] | -59 | -2.2 |  | 37.2 | 
Cc1sc2ncnc(Sc3nc4ccccc4[nH]3)c2c1C [MMV019266] | -72 | -2.2 |  | 11.8 | 
CCc1ccc(CNCC(O)c2ccccc2)cc1.Cl (stereo not drawn) [MMV665812] | -74 | -1.2 |  | 5.26 | 
CCN(CC)CCNc1ncnc2c1[nH]c1ccc(Cl)cc12 [MMV396703] | -81 | -1.1 |  | 3.72 | 
CCCn1c(=N)c(C(=O)NC2CCCCC2)cc2c(=O)n3cccc(C)c3nc21 [MMV008829] | -26 | 4 |  |  | Inactive
CCOc1ccc(-c2nonc2NC(=O)c2cccc(C)c2)cc1OCC [MMV665805] | -69 | -1.2 |  | 4.18 | 
CCN(CC)CCNc1ncnc2c1[nH]c1ccc(Br)cc12 [MMV305841] | -95 | -1.1 |  | 5.26 | 
COc1ccc(OC)c(C2C3=C(CC(C)(C)CC3=O)N(c3ccc(Cl)c(Cl)c3)C3=C2C(=O)CC(C)(C)C3)c1 [MMV007208] | -28 | 4 |  |  | Inactive
